# Measurements taken from US4542137A, “Alkylaminodesoxy-1.4;3.6-dianhydrohexitol nitrates substituted by purine bases and pharmaceutical compositions” (priority 1980, dated 1985).
# Test system: mongrel dogs
# Test: circulatory pharmacological effectiveness on narcotised dogs, intravenous
# Format: in vivo, dog
# [1] = dog i.v. ISDN/9c 1, 1d 0.5 mg/kg, 40 min
# [2] = dog i.v. ISDN/9c 1, 1d 0.5 mg/kg, 50 min
# [3] = dog i.v. ISDN/9c 1, 1d 0.5 mg/kg, 60 min
# [4] = dog i.v. ISDN/9c 1, 1d 0.5 mg/kg, 90 min
# [5] = dog i.v. ISDN/9c 1, 1d 0.5 mg/kg, 120 min
# [6] = dog i.v. ISDN/9c 1, 1d 0.5 mg/kg, 150 min
# [7] = dog i.v. ISDN/9c 1, 1d 0.5 mg/kg, 180 min
# [8] = dog i.v., before administration (v)
structure (smiles),measurement,setting,value
"Cn1c(=O)c2c(ncn2CCCN[C@H]2CO[C@H]3[C@@H]2OC[C@@H]3O[N+](=O)[O-])n(C)c1=O [Example 1d, 5-(3-Theophyllin-7-ylpropyl)-amino-5-desoxy-1.4;3.6-dianhydro-L-iditol 2-nitrate]",BFFem: blood flow in the A. femoralis referred to 20 kg body weight,[1],58.5 mL/min
same,HF: heart frequency,[1],97.5
same,"HLL: heart capacity left, referred to 20 kg body weight",[1],0.43 W
same,"HLR: heart capacity right, referred to 20 kg body weight",[1],50.8 mW
same,"HZV: heart minute volume, referred to 20 kg body weight",[1],2.05 L/min
same,"SV: beat volume, referred to 20 kg body weight",[1],21.5 mL
same,"WAP: pulmonalis resistance, referred to 20 kg body weight",[1],0.50 U
same,"WFem: moralis resistance, referred to 20 kg body weight",[1],0.25 KU
same,"WTP: total peripheral resistance, referred to 20 kg body weight",[1],6.62 U
same,dp/dt: rate of pressure increase in the left ventricle,[1],2193.7 mm.Hg/sec
same,APdiast: diastolic aorta pressure,[2],85.9 mm.Hg
same,APsyst: systolic aorta pressure,[2],135.9 mm.Hg
same,BFFem: blood flow in the A. femoralis referred to 20 kg body weight,[2],62.2 mL/min
same,HF: heart frequency,[2],96.2
same,"HLL: heart capacity left, referred to 20 kg body weight",[2],0.41 W
same,"HLR: heart capacity right, referred to 20 kg body weight",[2],47.3 mW
same,"HZV: heart minute volume, referred to 20 kg body weight",[2],1.93 L/min
same,"SV: beat volume, referred to 20 kg body weight",[2],20.5 mL
same,"WAP: pulmonalis resistance, referred to 20 kg body weight",[2],0.50 U
same,"WFem: moralis resistance, referred to 20 kg body weight",[2],0.25 KU
same,"WTP: total peripheral resistance, referred to 20 kg body weight",[2],7.24 U
same,dp/dt: rate of pressure increase in the left ventricle,[2],2006.2 mm.Hg/sec
same,APdiast: diastolic aorta pressure,[3],88.5 mm.Hg
same,APsyst: systolic aorta pressure,[3],136.8 mm.Hg
same,BFFem: blood flow in the A. femoralis referred to 20 kg body weight,[3],62.6 mL/min
same,HF: heart frequency,[3],95.5
same,"HLL: heart capacity left, referred to 20 kg body weight",[3],0.39 W
same,"HLR: heart capacity right, referred to 20 kg body weight",[3],46.0 mW
same,"HZV: heart minute volume, referred to 20 kg body weight",[3],1.82 L/min
same,LVEDP: end diastolic pressure in the left ventricle,[3],8.06 mm.Hg
same,"SV: beat volume, referred to 20 kg body weight",[3],19.4 mL
same,"WAP: pulmonalis resistance, referred to 20 kg body weight",[3],0.46 U
same,"WFem: moralis resistance, referred to 20 kg body weight",[3],0.26 KU
same,"WTP: total peripheral resistance, referred to 20 kg body weight",[3],7.90 U
same,dp/dt: rate of pressure increase in the left ventricle,[3],1968.7 mm.Hg/sec
same,APdiast: diastolic aorta pressure,[4],92.8 mm.Hg
same,APsyst: systolic aorta pressure,[4],137.8 mm.Hg
same,BFFem: blood flow in the A. femoralis referred to 20 kg body weight,[4],57.4 mL/min
same,HF: heart frequency,[4],92.5
same,"HLL: heart capacity left, referred to 20 kg body weight",[4],0.34 W
same,"HLR: heart capacity right, referred to 20 kg body weight",[4],36.7 mW
same,"HZV: heart minute volume, referred to 20 kg body weight",[4],1.57 L/min
same,LVEDP: end diastolic pressure in the left ventricle,[4],9.47 mm.Hg
same,"SV: beat volume, referred to 20 kg body weight",[4],17.4 mL
same,"WAP: pulmonalis resistance, referred to 20 kg body weight",[4],0.39 U
same,"WFem: moralis resistance, referred to 20 kg body weight",[4],0.29 KU
same,"WTP: total peripheral resistance, referred to 20 kg body weight",[4],9.39 U
same,dp/dt: rate of pressure increase in the left ventricle,[4],1743.7 mm.Hg/sec
same,APdiast: diastolic aorta pressure,[5],95.2 mm.Hg
same,APsyst: systolic aorta pressure,[5],139.7 mm.Hg
same,BFFem: blood flow in the A. femoralis referred to 20 kg body weight,[5],49.9 mL/min
same,HF: heart frequency,[5],96.5
same,"HLL: heart capacity left, referred to 20 kg body weight",[5],0.35 W
same,"HLR: heart capacity right, referred to 20 kg body weight",[5],34.9 mW
same,"HZV: heart minute volume, referred to 20 kg body weight",[5],1.57 L/min
same,LVEDP: end diastolic pressure in the left ventricle,[5],9.47 mm.Hg
same,"SV: beat volume, referred to 20 kg body weight",[5],17.0 mL
same,"WAP: pulmonalis resistance, referred to 20 kg body weight",[5],0.35 U
same,"WFem: moralis resistance, referred to 20 kg body weight",[5],0.36 KU
same,"WTP: total peripheral resistance, referred to 20 kg body weight",[5],9.56 U
same,dp/dt: rate of pressure increase in the left ventricle,[5],1659.4 mm.Hg/sec
same,APdiast: diastolic aorta pressure,[6],92.8 mm.Hg
same,APsyst: systolic aorta pressure,[6],139.7 mm.Hg
same,BFFem: blood flow in the A. femoralis referred to 20 kg body weight,[6],49.5 mL/min
same,HF: heart frequency,[6],104.5
same,"HLL: heart capacity left, referred to 20 kg body weight",[6],0.35 W
same,"HLR: heart capacity right, referred to 20 kg body weight",[6],36.9 mW
same,"HZV: heart minute volume, referred to 20 kg body weight",[6],1.61 L/min
same,LVEDP: end diastolic pressure in the left ventricle,[6],10.12 mm.Hg
same,"SV: beat volume, referred to 20 kg body weight",[6],15.9 mL
same,"WAP: pulmonalis resistance, referred to 20 kg body weight",[6],0.37 U
same,"WFem: moralis resistance, referred to 20 kg body weight",[6],0.37 KU
same,"WTP: total peripheral resistance, referred to 20 kg body weight",[6],8.10 U
same,dp/dt: rate of pressure increase in the left ventricle,[6],1640.6 mm.Hg/sec
same,APdiast: diastolic aorta pressure,[7],90.9 mm.Hg
same,APsyst: systolic aorta pressure,[7],137.8 mm.Hg
same,BFFem: blood flow in the A. femoralis referred to 20 kg body weight,[7],50.9 mL/min
same,HF: heart frequency,[7],114.0
same,"HLL: heart capacity left, referred to 20 kg body weight",[7],0.37 W
same,"HLR: heart capacity right, referred to 20 kg body weight",[7],38.3 mW
same,"HZV: heart minute volume, referred to 20 kg body weight",[7],1.73 L/min
same,LVEDP: end diastolic pressure in the left ventricle,[7],10.5 mm.Hg
same,"SV: beat volume, referred to 20 kg body weight",[7],15.5 mL
same,"WAP: pulmonalis resistance, referred to 20 kg body weight",[7],0.32 U
same,"WFem: moralis resistance, referred to 20 kg body weight",[7],0.32 KU
same,"WTP: total peripheral resistance, referred to 20 kg body weight",[7],8.13 U
same,dp/dt: rate of pressure increase in the left ventricle,[7],1621.9 mm.Hg/sec
same,APdiast: diastolic aorta pressure,[8],76.9 mm.Hg
same,APsyst: systolic aorta pressure,[8],152.8 mm.Hg
same,BFFem: blood flow in the A. femoralis referred to 20 kg body weight,[8],51.5 mL/min
same,HF: heart frequency,[8],101.2
same,"HLL: heart capacity left, referred to 20 kg body weight",[8],0.50 W
same,"HLR: heart capacity right, referred to 20 kg body weight",[8],67.1 mW
same,"HZV: heart minute volume, referred to 20 kg body weight",[8],2.35 L/min
same,LVEDP: end diastolic pressure in the left ventricle,[8],7.50 mm.Hg
same,PAP: average pressure in the A. pulmonalis,[8],15.59 mm.Hg
same,"SV: beat volume, referred to 20 kg body weight",[8],23.4 mL
same,"WAP: pulmonalis resistance, referred to 20 kg body weight",[8],0.46 U
same,"WFem: moralis resistance, referred to 20 kg body weight",[8],0.29 KU
same,"WTP: total peripheral resistance, referred to 20 kg body weight",[8],5.78 U
same,dp/dt: rate of pressure increase in the left ventricle,[8],1903.1 mm.Hg/sec
same,PRV: pressure in the right atrium,"dog, in vivo, iv",3.09
same,HF: heart frequency,"iv, 0.5 mg/kg",103.7
same,dp/dt: rate of pressure increase in the left ventricle,"iv, 0.5 mg/kg",2306.2 mm.Hg/sec
